From PMC9112407 (RSC Advances, 2022)

Legend:
MCF-7 = assay: In vitro anti-proliferative activity, MTT assay; type: cell-based; details: Homo sapiens, MCF7, 48 h, read-out: In vitro IC50 (nM) Mean ± SD MCF-7
CDK2/cyclin A2 = CDK2/cyclin A2 (Homo sapiens, UniProt P24941); assay: CDK2/cyclin A2 Kinase-Glo Plus luminescence kinase assay

Row | IC50 (MCF-7) [nM] | IC50 (CDK2/cyclin A2) [nM] | Compound
1 | 59 ± 0.94 | 81 ± 4 | CC(=O)OCCSc1nc2c3cnn(C(=O)CNc4ccc(C)cc4)c3ncn2n1 [Compound 13, 2-((7-(p-Tolylglycyl)-7H-pyrazolo[4,3-e][1,2,4]triazolo[1,5-c]pyrimidin-2-yl)thio)ethyl acetate]
2 | 53 ± 2.7 | 589 ± 33 | Cc1ccc(NCC(=O)n2ncc3c2ncn2nc(SCC#N)nc32)cc1 [Compound 8, 2-((7-(p-Tolylglycyl)-7H-pyrazolo[4,3-e][1,2,4]triazolo[1,5-c]pyrimidin-2-yl)thio)acetonitrile]
3 | 79 ± 1.4 |  | Cc1ccc(NCC(=O)n2ncc3c(=N)n(N)cnc32)cc1 [Compound 4, 1-(5-Amino-4-imino-4,5-dihydro-1H-pyrazolo[3,4-d]pyrimidin-1-yl)-2-(p-tolylamino)ethan-1-one]
4 | 97 ± 1.7 |  | Cc1ccc(NCC(=O)n2ncc3c2ncn2nc(SCCO)nc32)cc1 [Compound 12, 1-(2-((2-Hydroxyethyl)thio)-7H-pyrazolo[4,3-e][1,2,4]triazolo[1,5-c]pyrimidin-7-yl)-2-(p-tolylamino)ethan-1-one]
5 | 91 ± 4.2 | 3650 ± 203 | CC(=O)OCC(CSc1nc2c3cnn(C(=O)CNc4ccc(C)cc4)c3ncn2n1)OC(C)=O (stereo not shown) [Compound 11, 3-((7-(p-Tolylglycyl)-7H-pyrazolo[4,3-e][1,2,4]triazolo[1,5-c]pyrimidin-2-yl)thio)propane-1,2-diyl diacetate]
6 | 88 ± 0.99 | 1020 ± 57 | Cc1ccc(NCC(=O)n2ncc3c(=N)n(N[C@@H]4O[C@H](CO)[C@@H](O)[C@H](O)[C@H]4O)cnc32)cc1 [Compound 5, 1-(4-Imino-5-((β-D-glucopyranosyl)amino)-4,5-dihydro-1H-pyrazolo[3,4-d]pyrimidin-1-yl)-2-(p-tolylamino)ethan-1-one]
7 | 144 ± 0.47 |  | CNC(=O)c1cc(Oc2ccc(NC(=O)Nc3ccc(Cl)c(C(F)(F)F)c3)cc2)ccn1 [Sorafenib, reference compound]
8 | 552 ± 23 |  | Cc1ccc(NCC(=O)n2ncc3c(=N)n(N[C@@H]4OC[C@@H](O)[C@H](O)[C@H]4O)cnc32)cc1 [Compound 6, 1-(4-Imino-5-((β-D-xylopyranosyl)amino)-4,5-dihydro-1H-pyrazolo[3,4-d]pyrimidin-1-yl)-2-(p-tolylamino)ethan-1-one]
9 | 95 ± 4 |  | COC(CSc1nc2c3cnn(C(=O)CNc4ccc(C)cc4)c3ncn2n1)OC [Compound 9, 1-(2-((2,2-Dimethoxyethyl)thio)-7H-pyrazolo[4,3-e][1,2,4]triazolo[1,5-c]pyrimidin-7-yl)-2-(p-tolylamino)ethan-1-one]
10 | 53 ± 2.1 | 336 ± 19 | Cc1ccc(NCC(=O)n2ncc3c2ncn2nc(SCC(O)CO)nc32)cc1 (stereo not shown) [Compound 10, 1-{2-[(2,3-Dihydroxypropyl)thio]-7H-pyrazolo[4,3-e][1,2,4]triazolo[1,5-c]pyrimidin-7-yl}-2-(p-tolylamino)ethan-1-one]
11 | 951 ± 33 |  | Cc1ccc(NCC(=O)n2ncc3c2ncn2[nH]c(=S)nc32)cc1 [Compound 7, 1-(2-Thioxo-2,3-dihydro-7H-pyrazolo[4,3-e][1,2,4]triazolo[1,5-c]pyrimidin-7-yl)-2-(p-tolylamino)ethan-1-one]
